According to patent publication US9346809B2 (LEO PHARMA A/S, priority 2009, dated 2016):

What was measured:
Type in all cases: biochemical
[1] = target: T1, TYK2 (aa 871-1187, catalytic domain, GST-tag) (Homo sapiens, UniProt P29597); test: JAK kinase assay (HTRF, phosphorylation of TK substrate-biotin), TYK2; conditions: ATP at Km (13 μM); read-out: TYK2 kinase inhibitory activity (EC50 indicator)
T1 construct: JAK1 (aa 850-1154) and TYK2 (aa 871-1187) are expressed with an N-terminally fused GST-tag; GST (N); purchased Carna Biosciences, Inc; host or cells: baculovirus expression system
T1 sequence (P29597 871-1187): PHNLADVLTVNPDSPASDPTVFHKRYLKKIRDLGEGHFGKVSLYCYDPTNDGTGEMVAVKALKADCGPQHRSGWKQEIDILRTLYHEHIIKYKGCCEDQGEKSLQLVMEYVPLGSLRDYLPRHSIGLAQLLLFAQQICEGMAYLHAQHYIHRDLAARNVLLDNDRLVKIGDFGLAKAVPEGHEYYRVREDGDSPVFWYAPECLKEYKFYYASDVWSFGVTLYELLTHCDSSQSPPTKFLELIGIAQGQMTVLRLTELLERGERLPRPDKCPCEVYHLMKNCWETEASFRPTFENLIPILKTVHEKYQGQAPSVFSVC
Outline: (§1)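 EC50 values come from HTRF detection of phospho-biotin-TK peptide (1 μM) after 20-30 min RT reactions in Hepes pH 7.0 buffer with 0.75% DMSO. ATP was at Km for each enzyme: 7 μM JAK1, 4 μM JAK2, 2 μM JAK3, 13 μM TYK2. SEB (50 nM) was added for JAK1 and TYK2 only.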

[2] = target: T2, JAK3 (catalytic domain, His-tag) (Homo sapiens, UniProt P52333); test: JAK kinase assay (HTRF, phosphorylation of TK substrate-biotin), JAK3; conditions: ATP at Km (2 μM); read-out: JAK3 kinase inhibitory activity (EC50 indicator)
T2 construct: All four purified enzymes contain only the catalytic domain; His (N); purchased Carna Biosciences, Inc; host or cells: baculovirus expression system
T2 sequence (P52333 822-1111 limits assumed): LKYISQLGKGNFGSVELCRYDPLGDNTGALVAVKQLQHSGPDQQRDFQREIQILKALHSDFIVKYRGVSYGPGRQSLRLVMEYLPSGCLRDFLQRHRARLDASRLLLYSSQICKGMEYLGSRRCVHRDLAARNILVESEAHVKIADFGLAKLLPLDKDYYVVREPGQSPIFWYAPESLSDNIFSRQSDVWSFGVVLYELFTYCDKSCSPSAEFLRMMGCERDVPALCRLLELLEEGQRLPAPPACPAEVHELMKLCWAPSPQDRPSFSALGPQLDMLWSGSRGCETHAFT
Outline: as §1

[3] = target: T3, JAK1 (aa 850-1154, catalytic domain, GST-tag) (Homo sapiens, UniProt P23458); test: JAK kinase assay (HTRF, phosphorylation of TK substrate-biotin), JAK1; conditions: ATP at Km (7 μM); read-out: JAK1 kinase inhibitory activity (EC50 indicator)
T3 construct: JAK1 (aa 850-1154) and TYK2 (aa 871-1187) are expressed with an N-terminally fused GST-tag; GST (N); purchased Carna Biosciences, Inc; host or cells: baculovirus expression system
T3 sequence (P23458 850-1154): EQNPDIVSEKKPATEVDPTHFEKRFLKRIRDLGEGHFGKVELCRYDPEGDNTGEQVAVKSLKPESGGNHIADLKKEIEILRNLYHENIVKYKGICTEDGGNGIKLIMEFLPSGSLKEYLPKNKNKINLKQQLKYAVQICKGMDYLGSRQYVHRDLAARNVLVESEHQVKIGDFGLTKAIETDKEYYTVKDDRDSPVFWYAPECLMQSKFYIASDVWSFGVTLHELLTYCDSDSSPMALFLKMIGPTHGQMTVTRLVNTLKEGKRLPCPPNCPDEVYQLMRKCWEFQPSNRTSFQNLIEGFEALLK
Outline: as §1

[4] = target: T4, JAK2 (catalytic domain, His-tag) (Homo sapiens, UniProt O60674); test: JAK kinase assay (HTRF, phosphorylation of TK substrate-biotin), JAK2; conditions: ATP at Km (4 μM); read-out: JAK2 kinase inhibitory activity (EC50 indicator)
T4 construct: All four purified enzymes contain only the catalytic domain; His (N); purchased Carna Biosciences, Inc; host or cells: baculovirus expression system
T4 sequence (O60674 849-1124 limits assumed): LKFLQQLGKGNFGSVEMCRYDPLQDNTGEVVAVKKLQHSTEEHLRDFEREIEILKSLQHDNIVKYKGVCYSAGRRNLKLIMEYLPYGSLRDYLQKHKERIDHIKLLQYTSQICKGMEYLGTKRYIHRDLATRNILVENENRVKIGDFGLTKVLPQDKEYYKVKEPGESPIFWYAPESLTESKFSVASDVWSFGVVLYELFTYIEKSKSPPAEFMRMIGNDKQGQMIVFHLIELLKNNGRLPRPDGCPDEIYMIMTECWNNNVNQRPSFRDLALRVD
Outline: as §1

EC50 [1]	EC50 [2]	EC50 [3]	EC50 [4]	SMILES
100 to 500 nM	100 to 500 nM	< 100 nM	< 100 nM	N#CCCC(=O)N1[C@@H]2CC[C@@H]1CN(c1ncnc3[nH]ccc13)C2 [Example 182, 4-Oxo-4-[3-(7H-pyrrolo[2,3-d]pyrimidin-4-yl)-3,8-diaza-bicyclo[3.2.1]oct-8-yl]-butyronitrile]
< 100 nM	< 100 nM	< 100 nM	< 100 nM	CS(=O)(=O)c1ccc(C(=O)N2CCN(c3ncnc4[nH]ccc34)CC23CC3)c(F)c1 [Example 183, (2-Fluoro-4-methanesulfonyl-phenyl)-[7-(7H-pyrrolo[2,3-d]pyrimidin-4-yl)-4,7-diaza-spiro[2.5]oct-4-yl]-methanone]
100 to 500 nM	< 100 nM	< 100 nM	< 100 nM	Cc1ccc2[nH]c(C(=O)N3CCN(c4ncnc5[nH]ccc45)CC34CC4)cc2c1 [Example 184, (5-Methyl-1H-indol-2-yl)-[7-(7H-pyrrolo[2,3-d]pyrimidin-4-yl)-4,7-diaza-spiro[2.5]oct-4-yl]-methanone]
> 500 nM	> 500 nM	100 to 500 nM	100 to 500 nM	Cc1c(C(=O)N2CCN(c3ncnc4[nH]ccc34)CC23CC3)[nH]c2ccc(F)cc12 [Example 185, (5-Fluoro-3-methyl-1H-indol-2-yl)-[7-(7H-pyrrolo[2,3-d]pyrimidin-4-yl)-4,7-diaza-spiro[2.5]oct-4-yl]-methanone]
< 100 nM	< 100 nM	< 100 nM	< 100 nM	NS(=O)(=O)c1ccc2[nH]c(C(=O)N3CCN(c4ncnc5[nH]ccc45)CC34CC4)cc2c1 [Example 186, 2-[7-(7H-Pyrrolo[2,3-d]pyrimidin-4-yl)-4,7-diaza-spiro[2.5]octane-4-carbonyl]-1H-indole-5-sulfonic acid amide]
< 100 nM	< 100 nM	< 100 nM	< 100 nM	Cn1c(C(=O)N2CCN(c3ncnc4[nH]ccc34)CC23CC3)ccc1S(N)(=O)=O [Example 187, 1-Methyl-5-[7-(7H-pyrrolo[2,3-d]pyrimidin-4-yl)-4,7-diaza-spiro[2.5]octane-4-carbonyl]-1H-pyrrole-2-sulfonic acid amide]
< 100 nM	< 100 nM	< 100 nM	< 100 nM	Cn1cc(S(N)(=O)=O)cc1C(=O)N1CCN(c2ncnc3[nH]ccc23)CC12CC2 [Example 188, 1-Methyl-5-[7-(7H-pyrrolo[2,3-d]pyrimidin-4-yl)-4,7-diaza-spiro[2.5]octane-4-carbonyl]-1H-pyrrole-3-sulfonic acid amide]
100 to 500 nM	100 to 500 nM	< 100 nM	< 100 nM	CN(C)S(=O)(=O)c1ccc(C(=O)N2CCN(c3ncnc4[nH]ccc34)CC23CC3)cc1 [Example 189, N,N-Dimethyl-4-[7-(7H-pyrrolo[2,3-d]pyrimidin-4-yl)-4,7-diaza-spiro[2.5]octane-4-carbonyl]-benzenesulfonamide]
100 to 500 nM	< 100 nM	< 100 nM	< 100 nM	O=C(Cc1cccs1)N1CCN(c2ncnc3[nH]ccc23)CC12CC2 [Example 190, 1-[7-(7H-Pyrrolo[2,3-d]pyrimidin-4-yl)-4,7-diaza-spiro[2.5]oct-4-yl]-2-thiophen-2-yl-ethanone]
> 500 nM	< 100 nM	< 100 nM	< 100 nM	NS(=O)(=O)c1ccc(CC(=O)N2CCN(c3ncnc4[nH]ccc34)CC23CC3)cc1 [Example 191, 4-{2-Oxo-2-[7-(7H-pyrrolo[2,3-d]pyrimidin-4-yl)-4,7-diaza-spiro[2.5]oct-4-yl]-ethyl}-benzenesulfonamide]
< 100 nM	< 100 nM	< 100 nM	< 100 nM	O=C(c1cc2cc(F)cc(F)c2[nH]1)N1CCN(c2ncnc3[nH]ccc23)CC12CC2 [Example 192, (5,7-Difluoro-1H-indol-2-yl)-[7-(7H-pyrrolo[2,3-d]pyrimidin-4-yl)-4,7-diaza-spiro[2.5]oct-4-yl]-methanone]
< 100 nM	< 100 nM	< 100 nM	< 100 nM	N#Cc1ccc(C(=O)N2CCN(c3ncnc4[nH]ccc34)CC23CC3)s1 [Example 193, 5-[7-(7H-Pyrrolo[2,3-d]pyrimidin-4-yl)-4,7-diaza-spiro[2.5]octane-4-carbonyl]-thiophene-2-carbonitrile]
> 500 nM	100 to 500 nM	< 100 nM	< 100 nM	CS(=O)(=O)c1ccc(C(=O)N2CCN(c3ncnc4[nH]ccc34)CC23CC3)cc1N1CCCC1 [Example 194, (4-Methanesulfonyl-3-pyrrolidin-1-yl-phenyl)-[7-(7H-pyrrolo[2,3-d]pyrimidin-4-yl)-4,7-diaza-spiro[2.5]oct-4-yl]-methanone]
100 to 500 nM	< 100 nM	< 100 nM	< 100 nM	NS(=O)(=O)c1ccc(CC(=O)N2CCN(c3ncnc4[nH]ccc34)CC23CC3)s1 [Example 195, 5-{2-Oxo-2-[7-(7H-pyrrolo[2,3-d]pyrimidin-4-yl)-4,7-diaza-spiro[2.5]oct-4-yl]-ethyl}-thiophene-2-sulfonic acid amide]
> 500 nM	100 to 500 nM	< 100 nM	< 100 nM	CC(C)S(=O)(=O)c1ccc(C(=O)N2CCN(c3ncnc4[nH]ccc34)CC23CC3)cc1 [Example 196, [4-(Propane-2-sulfonyl)-phenyl]-[7-(7H-pyrrolo[2,3-d]pyrimidin-4-yl)-4,7-diaza-spiro[2.5]oct-4-yl]-methanone]
< 100 nM	< 100 nM	< 100 nM	< 100 nM	NS(=O)(=O)c1ccc(/C=C/C(=O)N2CCN(c3ncnc4[nH]ccc34)CC23CC3)cc1 [Example 197, 4-{3-Oxo-3-[7-(7H-pyrrolo[2,3-d]pyrimidin-4-yl)-4,7-diaza-spiro[2.5]oct-4-0]-propenyl}-benzenesulfonamide]
< 100 nM	< 100 nM	< 100 nM	< 100 nM	NS(=O)(=O)c1ccc(C(=O)N2CCN(c3ncnc4[nH]ccc34)CC23CC3)o1 [Example 198, 5-[7-(7H-Pyrrolo[2,3-d]pyrimidin-4-yl)-4,7-diaza-spiro[2.5]octane-4-carbonyl]-furan-2-sulfonic acid amide]
100 to 500 nM	< 100 nM	< 100 nM	< 100 nM	N#Cc1csc(C(=O)N2C3CCC2CN(c2ncnc4[nH]ccc24)C3)c1 [Example 199, 5-[3-(7H-Pyrrolo[2,3-d]pyrimidin-4-yl)-3,8-diaza-bicyclo[3.2.1]octane-8-carbonyl]-thiophene-3-carbonitrile]
> 500 nM	100 to 500 nM	< 100 nM	< 100 nM	Cc1ccc2[nH]c(C(=O)N3C4CCC3CN(c3ncnc5[nH]ccc35)C4)cc2c1 [Example 200, (5-Methyl-1H-indol-2-yl)-[3-(7H-pyrrolo[2,3-d]pyrimidin-4-yl)-3,8-diaza-bicyclo[3.2.1]oct-8-yl]-methanone]
> 500 nM	100 to 500 nM	< 100 nM	100 to 500 nM	Cc1c(C(=O)N2C3CCC2CN(c2ncnc4[nH]ccc24)C3)[nH]c2ccc(F)cc12 [Example 201, (5-Fluoro-3-methyl-1H-indol-2-yl)-[3-(7H-pyrrolo[2,3-d]pyrimidin-4-yl)-3,8-diaza-bicyclo[3.2.1]oct-8-yl]-methanone]
> 500 nM	> 500 nM	100 to 500 nM	100 to 500 nM	CC(C)S(=O)(=O)c1ccc(C(=O)N2C3CCC2CN(c2ncnc4[nH]ccc24)C3)cc1 [Example 202, [4-(Propane-2-sulfonyl)-phenyl]-[3-(7H-pyrrolo[2,3-d]pyrimidin-4-yl)-3,8-diaza-bicyclo[3.2.1]oct-8-yl]-methanone]
> 500 nM	< 100 nM	< 100 nM	< 100 nM	NS(=O)(=O)c1ccc(C(=O)N2C3CCC2CN(c2ncnc4[nH]ccc24)C3)o1 [Example 203]
100 to 500 nM	< 100 nM	< 100 nM	< 100 nM	O=C(c1ccc(S(=O)(=O)NCc2cccs2)cc1)N1CCN(c2ncnc3[nH]ccc23)CC12CC2 [Example 204, 4-[7-(7H-Pyrrolo[2,3-d]pyrimidin-4-yl)-4,7-diaza-spiro[2.5]octane-4-carbonyl]-N-thiophen-2-ylmethyl-benzenesulfonamide]
100 to 500 nM	< 100 nM	< 100 nM	< 100 nM	O=C(C(=O)N1CCN(c2ncnc3[nH]ccc23)CC12CC2)c1cccs1 [Example 205, 1-[7-(7H-Pyrrolo[2,3-d]pyrimidin-4-yl)-4,7-diaza-spiro[2.5]oct-4-yl]-2-thiophen-2-yl-ethane-1,2-d lone]
